Active and inactive are the calls of the source. The rule behind the calls is not given here.
Tests used:
[1] = test system: A549; assay: Induction of mitochondrial damage in human A549 cells assessed as increase in ratio of green to red fluorescence intensity measured upon light irradiation by JC-1 staining based fluorescence analysis relative to control; format: functional
[2] = Photosensitizing ability of the compound in methanol assessed as time duration of singlet oxygen production measured upon irradiation by DPBF based assay; format: functional
[3] = Photosensitizing ability of the compound assessed as hydroxyl radical production measured upon irradiation by HPF probe based assay; format: functional
[4] = Photosensitizing ability of the compound assessed as superoxide radical production measured upon irradiation by electron spin resonance analysis; format: functional
[5] = Photostability of the compound measured after 30 mins of light irradiation by UV absorption based analysis; format: physicochemical; details: 0.5 h
[6] = Phototoxicity against human A549 cells assessed as inhibition of cell growth incubated for 24 hrs measured under normoxia conditions and after one-photon excitation upon irradiation with light at 520 nm, 200 mW/cm2 for 10 mins by MTT assay; format: functional, cell-based; details: A549, light or radiation study
[7] = test system: 4T1; assay: Cytotoxicity against mouse 4T1 cells assessed as inhibition of cell growth incubated for 24 hrs measured under normoxia conditions by MTT assay; format: functional, cell-based; details: 4T1, 24 h
[8] = Cytotoxicity against human HFL1 cells assessed as inhibition of cell growth incubated for 24 hrs by MTT assay; format: toxicity, cell-based
[9] = Phototoxicity against human HT-29 cells assessed as inhibition of cell growth incubated for 24 hrs measured under normoxia conditions and after one-photon excitation upon irradiation with light at 520 nm, 200 mW/cm2 for 10 mins by MTT assay; format: functional, cell-based; details: HT-29, light or radiation study
[10] = Phototoxicity against mouse 4T1 cells assessed as inhibition of cell growth incubated for 24 hrs measured under normoxia conditions and after one-photon excitation upon irradiation with light at 520 nm, 200 mW/cm2 for 10 mins by MTT assay; format: functional, cell-based; details: 4T1, light or radiation study
[11] = Phototherapeutic index, ratio of IC50 for cytotoxicity against human A549 cells measured under normoxia conditions to IC50 for phototoxicity against human A549 cells measured under normoxia conditions and after one-photon excitation upon irradiation with light at 520 nm, 200 mW/cm2 for 10 mins; format: functional
[12] = Phototherapeutic index, ratio of IC50 for cytotoxicity against human A549 cells measured under normoxia conditions to IC50 for phototoxicity against human A549 cells measured under normoxia conditions and after two-photon excitation upon irradiation with light at 808 nm, 200 mW/cm2 for 10 mins; format: functional
[13] = Phototoxicity against human A549 cells assessed as inhibition of cell growth incubated for 24 hrs measured under hypoxia conditions and after one-photon excitation upon irradiation with light at 520 nm, 200 mW/cm2 for 10 mins by MTT assay; format: functional, cell-based; details: A549, light or radiation study
[14] = Phototoxicity against human A549 cells assessed as inhibition of cell growth incubated for 24 hrs measured under hypoxia conditions and after two-photon excitation upon irradiation with light at 808 nm, 200 mW/cm2 for 10 mins by MTT assay; format: functional, cell-based; details: A549, light or radiation study
[15] = test system: A549; assay: Induction of ROS generation in human A549 cells assessed as intracellular ROS level measured under normoxia conditions by DCFH-DA staining based fluorescence analysis; format: functional, cell-based
[16] = test system: A549; assay: Induction of ROS generation in human A549 cells assessed as intracellular superoxide level measured under normoxia conditions by DHE probe based fluorescence analysis; format: functional, cell-based
[17] = test system: A549; assay: Photosensitizing ability of the compound in human A549 cells assessed as increase in intracellular superoxide generation by measuring increase in fluorescence intensity measured upon light irradiation under normoxia conditions by DHE probe based fluorescence analysis relative to FLI in cells without irradiation; format: functional
[18] = test system: A549; assay: Induction of apoptosis in human A549 cells assessed as early apoptotic cells measured under dark conditions by AnnexinV-FITC/PI staining based flow cytometric analysis (reference value: 0.12%); format: functional
[19] = test system: A549; assay: Induction of apoptosis in human A549 cells assessed as late apoptotic cells measured under dark conditions by AnnexinV-FITC/PI staining based flow cytometric analysis (reference value: 0.17%); format: functional
[20] = test system: A549; assay: Induction of apoptosis in human A549 cells assessed as necrotic cells measured under dark conditions by AnnexinV-FITC/PI staining based flow cytometric analysis (reference value: 0.031%); format: functional
[21] = test system: A549; assay: Induction of apoptosis in human A549 cells assessed as late apoptotic cells measured upon light irradiation by AnnexinV-FITC/PI staining based flow cytometric analysis (reference value: 0.15%); format: functional
[22] = test system: A549; assay: Induction of apoptosis in human A549 cells assessed as necrotic cells measured upon light irradiation by AnnexinV-FITC/PI staining based flow cytometric analysis (reference value: 1.04%); format: functional
[23] = test system: A549; assay: Induction of apoptosis in human A549 cells assessed as increase in cleaved caspase-3 expression measured upon light irradiation by western blot analysis relative to control; format: functional
[24] = test system: A549; assay: Induction of DNA damage in human A549 cells assessed as increase in gammaH2AX expression measured upon light irradiation by western blot analysis relative to control; format: functional
[25] = test system: A549; assay: Induction of ferroptosis in human A549 cells assessed as increase in lipid peroxidation by measuring increase in MDA level measured upon irradiation relative to control; format: functional
[26] = test system: A549; assay: Induction of ferroptosis in human A549 cells assessed as increase in lipid peroxidation by measuring increase in green fluorescence of the oxidized state measured upon irradiation by BODIPY 581/591C11 probe based confocal imaging analysis; format: functional, cell-based
[27] = test system: A549; assay: Induction of autophagy in human A549 cells assessed as increase in Beclin-I expression measured upon light irradiation by western blot analysis relative to control; format: functional
[28] = test system: A549; assay: In vivo photodynamic therapy based antitumor activity against human A549 cells xenografted in mouse assessed as tumor growth inhibition administered intratumorally on day 0 and 7 and measured on day 15; format: functional; details: route it(Intratumoral); time 15 day
[29] = Toxicity against mouse xenografted with human A549 cells assessed as changes in body weight administered intratumorally on day 0 and 7 and measured for 15 days; details: in vivo, other, 360 h, route it(Intratumoral), time 15 day
[30] = Toxicity against mouse xenografted with human A549 cells assessed as changes in body weight administered intratumorally followed by exposure to light on day 0 and 7 and measured for 15 days; details: in vivo, other, 360 h, route it(Intratumoral), time 15 day
[31] = Toxicity against mouse xenografted with human A549 cells assessed as changes in biochemical indicators administered intratumorally followed by exposure to light on day 0 and 7 and measured on day 15; details: in vivo, other, 360 h, route it(Intratumoral), time 15 day
[32] = Toxicity against mouse xenografted with human A549 cells assessed as changes in hematological indicators administered intratumorally on day 0 and 7 and measured on day 15; details: in vivo, other, 360 h, route it(Intratumoral), time 15 day
[33] = Toxicity against mouse xenografted with human A549 cells assessed as changes in hematological indicators administered intratumorally followed by exposure to light on day 0 and 7 and measured on day 15; details: in vivo, other, 360 h, route it(Intratumoral), time 15 day
[34] = Photosensitizing ability of the compound in methanol assessed as singlet oxygen production by measuring quantum yield upon irradiation by DPBF based assay relative to KAKQ; format: functional
[35] = Photosensitizing ability of the compound assessed as hydroxyl radical production upon irradiation by HPF probe based assay relative to control; format: functional
[36] = Photosensitizing ability of the compound assessed as hydroxyl radical production upon irradiation by HPF probe based assay relative to KAKQ; format: functional
[37] = Photosensitizing ability of the compound assessed as hydroxyl radical production upon irradiation by HPF probe based assay relative to KNKQ; format: functional
[38] = Photosensitizing ability of the compound assessed as hydroxyl radical production upon irradiation by HPF probe based assay relative to RuB; format: functional

Stability [5]: Stable
Structure (SMILES): CCn1c2ccc(/C=C/c3cc[n+](C)c4ccccc34)cc2c2cc(N(c3ccccc3)c3ccccc3)ccc21.[I-]
fold change (FC) [1]: ~100
TIME [2]: < 0.133 h
Activity [3]: Active
Activity [4]: Active
IC50 [6]: 27 nM
IC50 [7]: 1080 nM
IC50 at 24 h [8]: 8910 nM
IC50 [9]: 29 nM
IC50 [10]: 51 nM
Ratio IC50 [11]: 54
Ratio IC50 [12]: 11
IC50 [13]: 43 nM
IC50 [14]: 200 nM
Activity [15]: inactive
Activity [16]: inactive
fold change (FC) [17]: 4
Activity [18]: 18.1%
Activity [19]: 30.7%
Activity [20]: 0.85%
Activity [21]: 87.8%
Activity [22]: 2.56%
fold change (FC) [23]: 3
fold change (FC) [24]: 4
fold change (FC) [25]: 10
Activity [26]: Active
fold change (FC) [27]: 2
TGI [28]: 70.6%
Activity [29]: Non-toxic
Activity [30]: Non-toxic
Activity [31]: Non-toxic
Activity [32]: Non-toxic
Activity [33]: Non-toxic
fold change (FC) [34]: 3
fold change (FC) [35]: 60
fold change (FC) [36]: 3
fold change (FC) [37]: 3
fold change (FC) [38]: 3

— ChEMBL document CHEMBL6182856, “Novel one-/two-photon excited carbazole/quinolinium photosensitizers manifest nanomolar and hypoxia-resistant tumor photodynamic therapy by accelerating apoptosis, ferroptosis, and autophagy” (Eur J Med Chem, 2025)
